In PMC7576618 (British Journal of Clinical Pharmacology, 2020):
Marks after values point to notes of the source that are not given here.

Assays:
[1] = SAD study: plasma pharmacokinetics after single oral TS-134; assay type: in vivo, human; details: for AUC0‐inf, mean (CV[%]) / Cmax, mean (CV[%]) / t1/2, mean (CV[%]) / tmax, median: plasma
[2] = MAD study: plasma pharmacokinetics after multiple oral dose titration of TS-134; assay type: in vivo, human; details: for AUC0‐tau, mean (CV[%]) / Cmax, mean (CV[%]) / t1/2, mean (CV[%]) / tmax, median: plasma, MAD Day 14, fed
[3] = compared with monkeys; cited from earlier work
[4] = SAD Parts A and C, 5 mg fasted (n = 6)
[5] = SAD Parts A and C, 10 mg fasted (n = 4)
[6] = SAD Parts A and C, 10 mg fed (n = 3)
[7] = SAD Parts A and C, 20 mg fasted (n = 3)
[8] = SAD Parts A and C, 20 mg fed (n = 3)

Structure (SMILES): CC(C)[C@@H]1CC[C@@H](C)C[C@H]1OC(=O)O[C@@H](C)OC(=O)[C@H]1[C@@H]2C[C@H](F)[C@@](N)(C(=O)O)[C@@H]21 [MGS0274]
- reduction of plasma AUC in the fed group (food effect) ([1]; SAD, 10 and 20 mg TS‐134): almost no food effect
- reduction of plasma Cmax in the fed group (food effect) ([1]; SAD, 10 and 20 mg TS‐134): up to 45%
- plasma AUC of MGS0274 as share of the AUC of MGS0008 ([1]; molar ratio, single and multiple oral administration, all treatment groups): approximately 3%
- AUC0‐inf, mean (CV[%]) ([1]; SAD Part B, 10 mg fed (n = 6)): 36.47 ^e (61.58) h•ng mL^−1
- Cmax, mean (CV[%]) ([1]; SAD Part B, 10 mg fed (n = 7)): 13.00 (82.69) ng mL^−1
- t1/2, mean (CV[%]) ([1]; SAD Part B, 10 mg fed (n = 7)): 1.377 ^e (26.45) h
- tmax, median ([1]; SAD Part B, 10 mg fed (n = 7)): 30 min
- AUC0‐inf, mean (CV[%]) [1, 4]: 23.94 ^c (30.64) h•ng mL^−1
- Cmax, mean (CV[%]) [1, 4]: 13.43 (55.44) ng mL^−1
- t1/2, mean (CV[%]) [1, 4]: 1.013 ^c (35.22) h
- tmax, median [1, 4]: 30 min
- AUC0‐inf, mean (CV[%]) [1, 5]: 29.33 (31.92) h•ng mL^−1
- Cmax, mean (CV[%]) [1, 5]: 17.88 (40.87) ng mL^−1
- t1/2, mean (CV[%]) [1, 5]: 0.8765 (17.66) h
- tmax, median [1, 5]: 60 min
- AUC0‐inf, mean (CV[%]) [1, 6]: 22.69 (8.60) h•ng mL^−1
- Cmax, mean (CV[%]) [1, 6]: 8.137 (16.40) ng mL^−1
- t1/2, mean (CV[%]) [1, 6]: 1.505 (7.14) h
- tmax, median [1, 6]: 15 min
- AUC0‐inf, mean (CV[%]) [1, 7]: 72.09 (50.40) h•ng mL^−1
- Cmax, mean (CV[%]) [1, 7]: 49.07 (66.56) ng mL^−1
- t1/2, mean (CV[%]) [1, 7]: 1.477 (14.30) h
- tmax, median [1, 7]: 15 min
- AUC0‐inf, mean (CV[%]) [1, 8]: 84.30 ^d (16.80) h•ng mL^−1
- Cmax, mean (CV[%]) [1, 8]: 33.27 (45.09) ng mL^−1
- t1/2, mean (CV[%]) [1, 8]: 1.669 ^d (7.05) h
- tmax, median [1, 8]: 30 min
- dose proportionality of steady‐state plasma Cmax and AUC ([2]; MAD, 5–80 mg): dose proportional increases
- AUC0‐tau, mean (CV[%]) ([2]; 5 mg (n = 8)): 14.90 (37.92) h•ng mL^−1
- Cmax, mean (CV[%]) ([2]; 5 mg (n = 8)): 6.090 (79.22) ng mL^−1
- t1/2, mean (CV[%]) ([2]; 5 mg (n = 8)): 1.247 (40.98) h
- tmax, median ([2]; 5 mg (n = 8)): 60 min
- AUC0‐tau, mean (CV[%]) ([2]; 10 mg (n = 8)): 29.40 (23.81) h•ng mL^−1
- Cmax, mean (CV[%]) ([2]; 10 mg (n = 8)): 13.91 (51.77) ng mL^−1
- t1/2, mean (CV[%]) ([2]; 10 mg (n = 8)): 1.212 (35.09) h
- tmax, median ([2]; 10 mg (n = 8)): 30 min
- AUC0‐tau, mean (CV[%]) ([2]; 20 mg (n = 8)): 56.36 (48.86) h•ng mL^−1
- Cmax, mean (CV[%]) ([2]; 20 mg (n = 8)): 26.92 (66.42) ng mL^−1
- t1/2, mean (CV[%]) ([2]; 20 mg (n = 8)): 1.567 (39.16) h
- tmax, median ([2]; 20 mg (n = 8)): 30 min
- AUC0‐tau, mean (CV[%]) ([2]; 40 mg (n = 8)): 122.0 (29.47) h•ng mL^−1
- Cmax, mean (CV[%]) ([2]; 40 mg (n = 8)): 40.38 (29.69) ng mL^−1
- t1/2, mean (CV[%]) ([2]; 40 mg (n = 8)): 4.711 (52.68) h
- tmax, median ([2]; 40 mg (n = 8)): 60 min
- AUC0‐tau, mean (CV[%]) ([2]; 60 mg (n = 8)): 170.0 (23.85) h•ng mL^−1
- Cmax, mean (CV[%]) ([2]; 60 mg (n = 8)): 95.14 (42.43) ng mL^−1
- t1/2, mean (CV[%]) ([2]; 60 mg (n = 8)): 7.549 (93.72) h
- tmax, median ([2]; 60 mg (n = 8)): 60 min
- AUC0‐tau, mean (CV[%]) ([2]; 80 mg Cohort 5 (n = 7)): 142.0 (19.40) h•ng mL^−1
- Cmax, mean (CV[%]) ([2]; 80 mg Cohort 5 (n = 7)): 85.27 (43.68) ng mL^−1
- t1/2, mean (CV[%]) ([2]; 80 mg Cohort 5 (n = 7)): 10.52 (57.99) h
- tmax, median ([2]; 80 mg Cohort 5 (n = 7)): 60 min
- AUC0‐tau, mean (CV[%]) ([2]; 80 mg Cohort 6 (n = 6)): 203.9 (24.30) h•ng mL^−1
- Cmax, mean (CV[%]) ([2]; 80 mg Cohort 6 (n = 6)): 98.55 (37.09) ng mL^−1
- t1/2, mean (CV[%]) ([2]; 80 mg Cohort 6 (n = 6)): 6.810 (23.98) h
- tmax, median ([2]; 80 mg Cohort 6 (n = 6)): 30 min
- hydrolytic activity against MGS0274 in the human liver S9 fraction [3]: comparable to that in monkeys
